The source of these data is ChEMBL document CHEMBL4616701, “Design, Synthesis, and Pharmacological Evaluation of Second Generation EZH2 Inhibitors with Long Residence Time” (ACS Med Chem Lett, 2020).

Structures are written as SMILES. Calls of active or inactive are those of the source. No cut-off for these calls is given here.

Usually EC50 stands for the midpoint of the concentration-response curve. As a reminder, the bioavailability is the share of a dose that reaches the circulation, judged against a reference dose that is usually intravenous. Read a low bioavailability as poor availability. Broadly, the GI50 is the concentration that inhibits growth by half. By IC50 is commonly meant the concentration needed to halve the response being measured. High values mean lower potency, low ones higher potency. As usually defined, the clearance is the rate of elimination divided by the concentration. Higher therefore signals efficient removal.

Data set [1] concerns the target T1, Histone-lysine N-methyltransferase EZH2 (Homo sapiens, UniProt Q15910). Description: Inhibition of EZH2 in human HeLa cells assessed as inhibition of trimethylation of H3K27 after 72 hrs by AlphaLISA assay. In kind it is cell-based.
Target sequence in this assay (Q15910 whole entry): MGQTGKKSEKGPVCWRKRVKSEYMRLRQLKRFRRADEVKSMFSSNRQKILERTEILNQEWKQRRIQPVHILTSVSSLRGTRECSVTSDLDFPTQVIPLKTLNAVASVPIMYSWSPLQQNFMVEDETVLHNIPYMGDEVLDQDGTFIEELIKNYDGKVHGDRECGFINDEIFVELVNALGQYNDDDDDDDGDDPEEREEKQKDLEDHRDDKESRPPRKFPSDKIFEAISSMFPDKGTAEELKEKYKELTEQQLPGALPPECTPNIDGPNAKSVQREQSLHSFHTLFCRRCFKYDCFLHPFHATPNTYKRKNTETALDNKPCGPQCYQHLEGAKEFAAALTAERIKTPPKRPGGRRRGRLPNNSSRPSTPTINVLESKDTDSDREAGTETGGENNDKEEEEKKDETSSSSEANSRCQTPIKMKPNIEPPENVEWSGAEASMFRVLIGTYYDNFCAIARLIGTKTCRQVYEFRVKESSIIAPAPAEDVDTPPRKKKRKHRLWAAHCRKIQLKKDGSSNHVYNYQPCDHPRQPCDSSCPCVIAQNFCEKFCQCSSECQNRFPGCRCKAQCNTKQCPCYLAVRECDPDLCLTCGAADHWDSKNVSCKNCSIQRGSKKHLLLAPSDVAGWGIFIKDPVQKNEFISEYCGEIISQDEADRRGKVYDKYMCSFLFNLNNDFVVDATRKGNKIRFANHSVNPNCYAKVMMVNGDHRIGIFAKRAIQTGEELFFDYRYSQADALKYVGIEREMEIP
Data set [2] deals with KARPAS-422. Description: Antitumor activity against human KARPAS422 cells xenografted in CB-17 SCID mouse assessed as tumor growth inhibition at 25 mg/kg, po bid and measured on day 21 by caliper method relative to control. The class given is functional. The settings on record: KARPAS-422, po, 504 h, read-out: TGI. Background: Xenograft models place foreign cells or tissue in a host animal.

Data set [3] has as its target T1, Histone-lysine N-methyltransferase EZH2. Kind of data set: In vivo inhibition of EZH2 in CB-17 SCID mouse xenografted with human KARPAS422 cells assessed as reduction in trimethylation of H3K27 in tumor at 25 mg/kg, po bid for 21 days measured after 14 days by MSD-ELISA. In kind it is functional, organism-based. The settings on record: KARPAS-422.
Target sequence in this assay (Q15910 whole entry, looked up): as the sequence (Q15910 whole entry) above
Data set [4] in a line: Dose normalized AUClast in CB-17 SCID mouse xenografted with human KARPAS422 cells at 25 mg/kg, po bid for 21 days and measured after 10 hrs post first dose at day 1 by LC-MS analysis. In kind it is ADME, organism-based, KARPAS-422. The settings on record: in vivo.
A short description of data set [5]: Protein binding in mouse plasma. The class given is ADME, cell-free. As to conditions: read-out: PPB (converted).
Data set [6] in a line: Oral bioavailability in CB-17 SCID mouse xenografted with human KARPAS422 cells at 25 mg/kg, bid for 21 days measured up to 10 hrs post first dose at day 1 by LC-MS analysis. The class given is ADME, organism-based, KARPAS-422. As to conditions: in vivo.
A short description of data set [7]: Protein binding in human plasma. In kind it is ADME, cell-free. As to conditions: read-out: PPB (converted).
Data set [8] deals with KARPAS-422. Description: Antiproliferative activity against human KARPAS422 cells assessed as growth inhibition after 8 days by Cell Titer-Glo luminescent assay. The class given is functional. As to conditions: KARPAS-422, 192 h. For orientation: ATP-based viability assays read luminescence as a measure of living cells.
Data set [9] is described as follows: Toxicity in CB-17 SCID mouse xenografted with human KARPAS422 cells assessed as effect on body weight at 25 mg/kg, po bid and measured on day 21. The class given is organism-based, KARPAS-422. The settings on record: in vivo.
The target in data set [10] is T1, Histone-lysine N-methyltransferase EZH2. Kind of data set: Inhibition of N-terminal FLAG-tagged EZH2 in PRC2 complex (unknown origin) expressed in baculovirus infected Sf9 cells using H2N-RKQLATKAAR(Kme0)SAPATGGVKKP-NTPEGBiot peptide as substrate preincubated with [3H]SAM for 4 to 5 hrs followed by substrate addition and measured after 20 hrs by Topcount reader analysis.
Target sequence in this assay (Q15910 whole entry): as above

The subject of data set [11] is KARPAS-422. Description: Antitumor activity against human KARPAS422 cells xenografted in CB-17 SCID mouse assessed as tumor growth inhibition at 25 mg/kg, po bid and measured on day 25 by caliper method relative to control. The class given is functional. As to conditions: KARPAS-422, po, 600 h, read-out: TGI.
The target of data set [12] is T1, Histone-lysine N-methyltransferase EZH2. Kind of data set: Binding affinity to N-terminal FLAG-tagged EZH2 in PRC2 complex (unknown origin) expressed in baculovirus infected Sf9 cells assessed as residence time at 21 nM pre-equilibrated with enzyme followed by incubation with bio-EZH2i and measured after 3 to 6 mins by TR-FRET assay.
Target sequence in this assay (Q15910 whole entry, looked up): as the sequence (Q15910 whole entry) above
Data set [13] concerns CYP3A4. Kind of data set: Upregulation of CYP3A4 mRNA expression in human Fa2N-4 cells at 10 uM after 3 days relative to control. In kind it is ADME, cell-based. As to conditions: read-out: FC.
Data set [14] is described as follows: Clearance in iv dosed mouse. The class given is ADME, organism-based. The settings on record: in vivo.
Data set [15] has as its system KARPAS-422. Kind of data set: Antitumor activity against human KARPAS422 cells xenografted in CB-17 SCID mouse assessed as tumor regression at 25 mg/kg, po bid and measured on day 14 by caliper method. In kind it is functional, organism-based.
Data set [16] is described as follows: Time during which free drug concentration exceeds EC50 for inhibition of EZH2 in human HeLa cells in CB-17 SCID mouse xenografted with human KARPAS422 cells at 25 mg/kg, po bid for 21 days and measured up to 10 hrs post first dose at day 1 by LC-MS analysis. The class given is organism-based. As to conditions: in vivo.

`CSc1cc(C)[nH]c(=O)c1CNC(=O)c1c(C)n([C@H](C)[C@H]2CC[C@H](N3CC(OC4CC4)C3)CC2)c2ncccc12`: in [1], the EC50 came to 1.8 nM. For the same compound, the inhibition in vivo at 25 mg/kg is 75% in data set [2] and at least 91% in data set [11]. Further, in data set [3], the inhibition entry was “Active”. Besides, the AUClast/dose in data set [4] was 46.5 ng·h/mL/(mg/kg). Also, the fraction unbound in [5] was 0.13; in [7] it was 0.03. Also, in data set [6], the bioavailability is 15%. Besides, in data set [8], the GI50 fell in the range of 12 to 12.2 nM. For the same compound, the Activity entry in data set [9] is on record as “Non-Toxic”. The same compound yielded an IC50 in data set [10] of 0.057 nM. Moreover, in data set [12], the TIME came to 57.5 h. Moreover, in data set [13], the fold induction at 72 h, 10 µM is 2.2. In data set [14], this compound gave a clearance of 55.8 mL/min/kg. Further, the result in data set [15] was Active. In addition, in data set [16], the “T>fEC50” value is 4 h.
